Patent US8592368B2, “JAK/STAT inhibitors and MAPK/ERK inhibitors for RSV infection” (University of South Florida, priority 2003, dated 2013)

How the values were obtained:
STAT-1α = STAT-1α phosphorylation in RSV-infected A549 cells (immunoblot); assay type: cell-based, human; conditions: for RSV-induced STAT-1α phosphorylation: A549 cells pre-incubated with AG490 (50 μM) or PD98059 for 4 hours, then RSV, densitometry of Western blot
Protocol: (§1) FIGS. 4A-4F that blocking STAT-1α attenuates RSV gene transcription and infection. A549 cells were treated with 50 µM AG490 for 4 hours before being exposed to supRSV for 30 minutes. Lysates were separated by SDS-PAGE and immunoblotted using antibodies to phospho-STAT-1α and STAT-1α. The total number of syncytia-forming plaques (PFU/ml) was counted 72 hours post-infection. Each value represents means SEM (N=3, *p<0.001). Cell proliferation was determined by viable cell counts. A549 cells were cotransfected with the pRL-TK plasmid and either the WT (pRc/CMV STAT-1α) (lanes 1 and 2) or DN mutant (pRc/CMV STAT-1α) (Y701F) (lanes 3 and 4) and then exposed to supRSV for 30 minutes. Lysates were separated by SDS-PAGE and immunoblotted for phospho-STAT-1α or STAT-1α. A549 cells were transfected with WT or DN-STAT-1α constructs and 24 hours later exposed to RSV for 30 minutes. RSV replication was measured by RT-PCR analysis of N protein gene expression. The percentage of infected cells was determined using immunofluorescence in cells transfected with WT or DN-STAT-1α. The values are means SEM (*p<0.001).
FIGS. 8A-8D show the effects of inhibitors of phosphorylation of STAT-1α and ERK-1/2. In FIG. 8A, AG490- or PD98059-treated A549 cells were infected with RSV for 15 minutes. Total proteins were Western-blotted using specific anti-phospho antibodies to STAT-1α, ERK-1/2 or IκBα. Lane 1: mock-infected, lanes 2-4: RSV infected for 30 minutes, lane 3: cells treated with 50 μM of AG490 prior to RSV infection, lane 4: cells treated with 25 μM of PD98059 for 4 hours prior RSV infection. In FIG. 8B, the bands were quantified by densitometry and the relative intensity of phosphoSTAT-1α, phospho-ERK and phospho-IκBα with respect to uninfected control (lane 1) was determined. The experiment was repeated twice and the result of a representative experiment is shown. […] A549 cells were co-transfected with RL-TK plasmid and either the WT (pRc/CMV-STAT-1α) (lanes 3 and 4) or DN mutant (pRc/CMV-STAT-1α) (Y701F) (lanes 5 and 6) and were infected with RSV for 30 minutes after 24 hours of transfection. […] In FIG. 8D, the bands were quantified by densitometry and the relative intensity of phospho-ERK and ERK was determined in each band. […]
Immunoblotting was carried out as previously described (Behera, A. K. et al. Biochem. Biophys. Res. Commun., 1998, 251(3): 704-709). After transfer, membranes were blocked with 5% non-fat dried milk, incubated with antibody to a specific STAT protein or to the corresponding phospho-STAT protein (NEW ENGLAND BIOLABS, Beverly, Mass.), secondary antibody conjugated to horseradish peroxidase was added, and immunocomplexes detected by enhanced chemiluminescence (NEW ENGLAND BIOLABS, Beverly, Mass.). […]

ERK-1/2 = ERK-1/2 phosphorylation in RSV-infected A549 cells (immunoblot); assay type: cell-based, human
Protocol: Proteins were isolated from untreated cells (lane 1) or cells infected with RSV for 30 minutes (lanes 2-6) after pretreatment of cells for 30 minutes with heparinase (lane 3) or heparin (lane 5), or infected with virus pretreated with heparinase (lane 4) or heparin (lane 6) prior to addition to the cells. Proteins were separated by SDS-PAGE, blotted and probed with anti-phospho ERK-1/2 and then re-probed with anti-ERK-1/2.
FIGS. 8A-8D show the effects of inhibitors of phosphorylation of STAT-1α and ERK-1/2. In FIG. 8A, AG490- or PD98059-treated A549 cells were infected with RSV for 15 minutes. Total proteins were Western-blotted using specific anti-phospho antibodies to STAT-1α, ERK-1/2 or IκBα. Lane 1: mock-infected, lanes 2-4: RSV infected for 30 minutes, lane 3: cells treated with 50 μM of AG490 prior to RSV infection, lane 4: cells treated with 25 μM of PD98059 for 4 hours prior RSV infection. In FIG. 8B, the bands were quantified by densitometry and the relative intensity of phosphoSTAT-1α, phospho-ERK and phospho-IκBα with respect to uninfected control (lane 1) was determined. The experiment was repeated twice and the result of a representative experiment is shown. […] A549 cells were co-transfected with RL-TK plasmid and either the WT (pRc/CMV-STAT-1α) (lanes 3 and 4) or DN mutant (pRc/CMV-STAT-1α) (Y701F) (lanes 5 and 6) and were infected with RSV for 30 minutes after 24 hours of transfection. Total proteins were extracted and Western-blotted using antibodies to phospho-STAT-1α, phospho-ERK-1/2 and re-probed with antibodies to STAT-1α or ERK-1/2. In FIG. 8D, the bands were quantified by densitometry and the relative intensity of phospho-ERK and ERK was determined in each band. […]
Whole cell protein extracts were prepared by lysing cells in 50 mM HEPES, 150 mM NaCl, 1 mM EDTA, 1 mM EGTA, 10% glycerol, 0.5% NP-40, 0.1 mM phenylmethylsulfonyl fluoride, 2.5 μg/ml leupeptin, 0.5 mM NaF, and 0.1 mM sodium vanadate. […] The antibody reactions were detected by enhanced chemiluminescence using LUMIGLO (CELL SIGNALLING TECHNOLOGY). […]

RSV [1] = conditions: treatment of cells; Feldman et al. 1999; cited from earlier work
RSV [2] = test: RSV plaque assay (syncytia-forming plaques, HEp-2 cell-based); set-up: species or system respiratory syncytial virus; conditions: A549 cells, AG490 pretreatment, plaques counted 72 hours post-infection
Protocol: as §1, with “(*p<0.001). […]” for “(*p<0.001).”

A549 cells = assay type: cell-based, human
Protocol: as §1
To rule out the possibility that this effect on viral replication is due to diminished cell proliferation, viable cells were enumerated at 12, 24, 48, and 72 hours after treatment with inhibitors.

IκBα = IκBα phosphorylation in RSV-infected A549 cells (immunoblot); assay type: cell-based, human; conditions: A549 cells pre-incubated with AG490 (50 μM) or PD98059 for 4 hours, then RSV
Protocol: FIGS. 8A-8D show the effects of inhibitors of phosphorylation of STAT-1α and ERK-1/2. In FIG. 8A, AG490- or PD98059-treated A549 cells were infected with RSV for 15 minutes. Total proteins were Western-blotted using specific anti-phospho antibodies to STAT-1α, ERK-1/2 or IκBα. Lane 1: mock-infected, lanes 2-4: RSV infected for 30 minutes, lane 3: cells treated with 50 μM of AG490 prior to RSV infection, lane 4: cells treated with 25 μM of PD98059 for 4 hours prior RSV infection. In FIG. 8B, the bands were quantified by densitometry and the relative intensity of phosphoSTAT-1α, phospho-ERK and phospho-IκBα with respect to uninfected control (lane 1) was determined. The experiment was repeated twice and the result of a representative experiment is shown. […] In FIG. 8D, the bands were quantified by densitometry and the relative intensity of phospho-ERK and ERK was determined in each band. […]
Whole cell protein extracts were prepared by lysing cells in 50 mM HEPES, 150 mM NaCl, 1 mM EDTA, 1 mM EGTA, 10% glycerol, 0.5% NP-40, 0.1 mM phenylmethylsulfonyl fluoride, 2.5 μg/ml leupeptin, 0.5 mM NaF, and 0.1 mM sodium vanadate. […] The antibody reactions were detected by enhanced chemiluminescence using LUMIGLO (CELL SIGNALLING TECHNOLOGY).

rgRSV = rgRSV infection of primary NHBE cells (fluorescent images); assay type: cell-based, respiratory syncytial virus; conditions: AG490 50 μM or PD98059 80 μM 2 hours before rgRSV, images after 16 hours
Protocol: FIGS. 10A-10F show the effects of STAT and ERK-1/2 inhibitors on RSV infection of NHBE cells. NHBE cells were treated with either AG490 (50 μM) (FIGS. 10C and 10D) or PD98059 (80 μM) (FIGS. 10E and 10F) for 2 hours. DMSO was used as a mock control (FIGS. 10A and 10B). After inhibitor removal, cells were infected with rgRSV for 2 hours. Then, rgRSV was removed and growth medium with inhibitors was added to the cells for 16 hours before fluorescent images (DMSO, FIG. 10B; AG490, FIG. 10D; PD98059, FIG. 10F) as well as light transmission images (DMSO, FIG. 10A; AG490, FIG. 10C; PD98059, FIG. 10E) were taken.
RSV A2 strain was obtained from the American Type Culture Collection (ATCC, Rockville, Md., USA). In some experiments, rgRSV (an engineered RSV expressing enhanced green fluorescent protein) was used. A549 cell line, representing type II alveolar epithelial cells, was obtained from the ATCC. The cells were grown at 37° C. in 5% CO2 in RPMI medium, supplemented with 10% fetal bovine serum. Normal human bronchial epithelial cells (NHBE) were obtained from CAMBREX (Walkersville, Md., USA) and grown in serum-free bronchial epithelium growth medium supplemented as indicated by the manufacturer. NHBE at passage 2 and 3 was used for the experiments.
A549 cells were incubated with AG490 (50 μM) or PD98059 (80 μM) for 4 hours at 37° C. and then infected with RSV. […]

RSV [3] = test: Immunofluorescence count of RSV-infected A549 cells; assay type: cell-based, respiratory syncytial virus; conditions: A549 cells treated with PD98059, 24 hours of RSV infection, vs control
Protocol: as §1, with “The values are means SEM (*p<0.001).” left out
In FIG. 9A, PD98059- or DMSO-treated A549 cells were infected with RSV. […] The RSV titers were determined using a HEP-2 cell-based plaque assay as described. […] Twenty-four hours after transfection, A549 cells were infected with RSV for 90 minutes and 24 hours after the % of infected cells was determined with FITC-RSV antibody. […]

HIV-1 = conditions: Yang and Gabuzda 1999; cited from earlier work

| Molecule | RSV-induced activation of STAT-1 (STAT-1α; A549 cells or RSV pretreated with heparin 1000 U/ml or heparinase 10 U/ml, RSV 30 minutes) | RSV-induced activation of ERK-1/2 (ERK-1/2; A549 cells, heparin pretreatment, RSV 30 minutes) | ERK-1/2 phosphorylation induced by pretreated RSV (ERK-1/2; RSV pretreated with heparin or heparinase before addition to A549 cells) | RSV infection (RSV [1]) | RSV-induced STAT-1α phosphorylation (STAT-1α) | phosphorylation of STAT-1α (STAT-1α; A549 cells preincubated with AG490 for 4 hours, then supRSV 30 minutes, vs untreated controls) | RSV infection by plaque assay (PFU/ml) (RSV [2]) | cytotoxic or anti-proliferative effects (viable cell counts) (A549 cells) | ERK activation (phospho-ERK-1/2) (ERK-1/2; A549 cells pre-incubated with AG490 50 μM, then RSV) | IκBα phosphorylation (IκBα) | number of infected cells (rgRSV) | percentage of infected cells (RSV [3]) | infectivity of HIV-1 virions (HIV-1) |
| --- | --- | --- | --- | --- | --- | --- | --- | --- | --- | --- | --- | --- | --- |
| heparin | abolished | abolished the RSV-induced activation of ERK-1/2 | did not induce ERK-1/2 phosphorylation | blocks RSV infection |  |  |  |  |  |  |  |  |  |
| N#C/C(=C/c1ccc(O)c(O)c1)C(=O)NCc1ccccc1 [AG490] |  |  |  |  | decrease in RSV-induced STAT-1K phosphorylation | decreased phosphorylation of STAT-1α | significantly (p<0.001) decreased RSV infection | no cytotoxic or anti-proliferative effects | failed to inhibit ERK activation | decrease | significant reduction in the number of infected cells |  |  |
| COc1cccc(-c2cc(=O)c3ccccc3o2)c1N [PD98059] |  |  |  |  | significantly affected the phosphorylation |  |  |  |  | significantly affected the phosphorylation | significant reduction in the number of infected cells | decrease in the percentage of infected cells | reduced the infectivity of HIV-1 virions |
